{"source": "patent US20220306695A1", "about": "“COMPSTATIN ANALOGUES AND THEIR MEDICAL USES” (priority 2019, published 2022)", "key": {"[1]": {"assay": "Solubility test at 10 mg/mL (visual inspection and light scattering)", "type": "physicochemical", "settings": "for Solubility, Condition 1 Acetate pH 4: 10 mg/mL compound in 100 mM acetate pH 4; for Solubility, Condition 2 Acetate pH 5: 10 mg/mL compound in 100 mM acetate pH 5; for Solubility, Condition 3 Phosphate pH 6: 10 mg/mL compound in 100 mM phosphate pH 6; for Solubility, Condition 4 Phosphate pH 7: 10 mg/mL compound in 100 mM phosphate pH 7; for Solubility, Condition 5 Phosphate pH 7.5: 10 mg/mL compound in 100 mM phosphate pH 7.5"}, "[2]": {"tested_on": "classical complement pathway", "assay": "In vitro haemolysis assay (inhibition of classical complement pathway)", "type": "cell-based, human", "in_short": "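Serially diluted compound (9 points) was preincubated 15 min at room temperature with diluted human serum, titrated per batch to give 70-90% maximal haemolysis, in Tris/casein buffer pH 7.4 with Mg2+/Ca2+. Antibody-sensitized sheep erythrocytes were then added for 30 min at 37° C, and the reaction was stopped with EDTA. Haemolysis was read at A405, with IC50 from 4PL fit.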"}, "[3]": {"settings": "Table 3, human serum, sensitized sheep red blood cells, read-out: IC50[nM], in vitro analysis of inhibition of hemolysis"}}, "note": "Where two headings read alike, the source gives them in different places. Positions of bridges follow the written chain, without caps; N, C: chain ends. Non-standard residues stand in square brackets, D forms with d. Residues, ends and D or L forms follow the SMILES beside them. Trp(1-Me) = Cn1cc(C[C@H](N)C(=O)O)c2ccccc21; 2Nal = N[C@@H](Cc1ccc2ccccc2c1)C(=O)O; Sar = CNCC(=O)O", "data": [{"smiles": "CC[C@H](C)[C@H](NC(=O)[C@H](C)NC(=O)[C@H](CO)NC(=O)CNC(=O)[C@H](CCC(=O)O)NC(C)=O)C(=O)N[C@H]1CSSC[C@@H](C(=O)N(C)CC(=O)N[C@@H](CCC(=O)O)C(N)=O)NC(=O)[C@H](CCCNC(=N)N)NC(=O)[C@H](Cc2c[nH]cn2)NC(=O)[C@H](CCC(=O)O)NC(=O)CNC(=O)[C@H](Cc2c[nH]c3ccccc23)NC(=O)[C@H](CC(=O)O)NC(=O)[C@H](CCC(N)=O)NC(=O)[C@H](Cc2ccc3ccccc3c2)NC(=O)[C@H]([C@@H](C)CC)NC1=O", "note": "[Compound 50] (Ac-EGSAICI[2Nal]QDWGEHRC[Sar]E-NH2; disulfide 6-16)", "values": [{"measurement": "Solubility, Condition 1 Acetate pH 4", "setting": "[1]", "value": "− (denotes lack of solubility at the given condition, as UV absorbance at 340 nm exceeds 0.1 AU and/or it is visibly turbid or contains particles.)"}, {"measurement": "Solubility, Condition 2 Acetate pH 5", "setting": "[1]", "value": "− (denotes lack of solubility at the given condition, as UV absorbance at 340 nm exceeds 0.1 AU and/or it is visibly turbid or contains particles.)"}, {"measurement": "Solubility, Condition 3 Phosphate pH 6", "setting": "[1]", "value": "+ (denotes solubility at the given condition, as determined by UV absorbance being less than 0.1 AU at 340 nm and the sample being clear when manually inspected.)"}, {"measurement": "Solubility, Condition 4 Phosphate pH 7", "setting": "[1]", "value": "+ (denotes solubility at the given condition, as determined by UV absorbance being less than 0.1 AU at 340 nm and the sample being clear when manually inspected.)"}, {"measurement": "Solubility, Condition 5 Phosphate pH 7.5", "setting": "[1]", "value": "+ (denotes solubility at the given condition, as determined by UV absorbance being less than 0.1 AU at 340 nm and the sample being clear when manually inspected.)"}, {"measurement": "IC50", "setting": "[2]; [3]", "value": "< 100", "unit": "nM"}]}, {"smiles": "CC[C@H](C)[C@H](NC(=O)[C@H](C)NC(=O)[C@H](CO)NC(=O)CNC(=O)[C@H](CCC(=O)O)NC(C)=O)C(=O)N[C@H]1CSSC[C@@H](C(=O)N(C)CC(=O)N[C@@H](CCC(=O)O)C(N)=O)NC(=O)[C@H](CCCNC(=N)N)NC(=O)[C@H](Cc2c[nH]cn2)NC(=O)[C@H](CCC(=O)O)NC(=O)CNC(=O)[C@H](Cc2c[nH]c3ccccc23)NC(=O)[C@H](CC(=O)O)NC(=O)[C@H](CCC(N)=O)NC(=O)[C@H](Cc2c[nH]c3ccccc23)NC(=O)[C@H]([C@@H](C)CC)NC1=O", "note": "[Compound 28] (Ac-EGSAICIWQDWGEHRC[Sar]E-NH2; disulfide 6-16)", "values": [{"measurement": "Solubility, Condition 1 Acetate pH 4", "setting": "[1]", "value": "+ (denotes solubility at the given condition, as determined by UV absorbance being less than 0.1 AU at 340 nm and the sample being clear when manually inspected.)"}, {"measurement": "Solubility, Condition 2 Acetate pH 5", "setting": "[1]", "value": "+ (denotes solubility at the given condition, as determined by UV absorbance being less than 0.1 AU at 340 nm and the sample being clear when manually inspected.)"}, {"measurement": "Solubility, Condition 3 Phosphate pH 6", "setting": "[1]", "value": "+ (denotes solubility at the given condition, as determined by UV absorbance being less than 0.1 AU at 340 nm and the sample being clear when manually inspected.)"}, {"measurement": "Solubility, Condition 4 Phosphate pH 7", "setting": "[1]", "value": "+ (denotes solubility at the given condition, as determined by UV absorbance being less than 0.1 AU at 340 nm and the sample being clear when manually inspected.)"}, {"measurement": "Solubility, Condition 5 Phosphate pH 7.5", "setting": "[1]", "value": "+ (denotes solubility at the given condition, as determined by UV absorbance being less than 0.1 AU at 340 nm and the sample being clear when manually inspected.)"}, {"measurement": "IC50", "setting": "[2]; [3]", "value": "< 100", "unit": "nM"}, {"measurement": "IC50", "setting": "[2]; Table 4, valine 3 versus isoleucine 3 pairs, read-out: CP hemolysis IC50", "value": 88, "unit": "nM"}]}, {"smiles": "CC[C@H](C)[C@H](NC(=O)[C@H](C)NC(=O)[C@H](CO)NC(=O)CNC(=O)[C@H](CCC(=O)O)NC(C)=O)C(=O)N[C@H]1CSSC[C@@H](C(=O)N(C)CC(=O)N[C@@H](CCC(=O)O)C(N)=O)NC(=O)[C@H](CCCNC(=N)N)NC(=O)[C@H](Cc2c[nH]cn2)NC(=O)[C@H](CCC(=O)O)NC(=O)CNC(=O)[C@H](Cc2c[nH]c3ccccc23)NC(=O)[C@H](CC(=O)O)NC(=O)[C@H](CCC(N)=O)NC(=O)[C@H](Cc2cn(C)c3ccccc23)NC(=O)[C@H]([C@@H](C)CC)NC1=O", "note": "[Compound 49] (Ac-EGSAICI[Trp(1-Me)]QDWGEHRC[Sar]E-NH2; disulfide 6-16)", "values": [{"measurement": "Solubility, Condition 1 Acetate pH 4", "setting": "[1]", "value": "− (denotes lack of solubility at the given condition, as UV absorbance at 340 nm exceeds 0.1 AU and/or it is visibly turbid or contains particles.)"}, {"measurement": "Solubility, Condition 2 Acetate pH 5", "setting": "[1]", "value": "− (denotes lack of solubility at the given condition, as UV absorbance at 340 nm exceeds 0.1 AU and/or it is visibly turbid or contains particles.)"}, {"measurement": "Solubility, Condition 3 Phosphate pH 6", "setting": "[1]", "value": "+ (denotes solubility at the given condition, as determined by UV absorbance being less than 0.1 AU at 340 nm and the sample being clear when manually inspected.)"}, {"measurement": "Solubility, Condition 4 Phosphate pH 7", "setting": "[1]", "value": "+ (denotes solubility at the given condition, as determined by UV absorbance being less than 0.1 AU at 340 nm and the sample being clear when manually inspected.)"}, {"measurement": "Solubility, Condition 5 Phosphate pH 7.5", "setting": "[1]", "value": "+ (denotes solubility at the given condition, as determined by UV absorbance being less than 0.1 AU at 340 nm and the sample being clear when manually inspected.)"}, {"measurement": "IC50", "setting": "[2]; [3]", "value": "< 100", "unit": "nM"}]}, {"smiles": "CC[C@H](C)[C@H](NC(=O)[C@H](C)NC(=O)[C@H](CO)NC(C)=O)C(=O)N[C@H]1CSSC[C@@H](C(=O)N(C)CC(=O)N[C@@H](CCC(=O)O)C(N)=O)NC(=O)[C@H](CCCNC(=N)N)NC(=O)[C@H](Cc2c[nH]cn2)NC(=O)[C@H](CCC(=O)O)NC(=O)CNC(=O)[C@H](Cc2c[nH]c3ccccc23)NC(=O)[C@H](CC(=O)O)NC(=O)[C@H](CCC(N)=O)NC(=O)[C@H](Cc2c[nH]c3ccccc23)NC(=O)[C@H]([C@@H](C)CC)NC1=O", "note": "[Compound 41] (Ac-SAICIWQDWGEHRC[Sar]E-NH2; disulfide 4-14)", "values": [{"measurement": "Solubility, Condition 1 Acetate pH 4", "setting": "[1]", "value": "− (denotes lack of solubility at the given condition, as UV absorbance at 340 nm exceeds 0.1 AU and/or it is visibly turbid or contains particles.)"}, {"measurement": "Solubility, Condition 2 Acetate pH 5", "setting": "[1]", "value": "− (denotes lack of solubility at the given condition, as UV absorbance at 340 nm exceeds 0.1 AU and/or it is visibly turbid or contains particles.)"}, {"measurement": "Solubility, Condition 3 Phosphate pH 6", "setting": "[1]", "value": "+ (denotes solubility at the given condition, as determined by UV absorbance being less than 0.1 AU at 340 nm and the sample being clear when manually inspected.)"}, {"measurement": "Solubility, Condition 4 Phosphate pH 7", "setting": "[1]", "value": "+ (denotes solubility at the given condition, as determined by UV absorbance being less than 0.1 AU at 340 nm and the sample being clear when manually inspected.)"}, {"measurement": "Solubility, Condition 5 Phosphate pH 7.5", "setting": "[1]", "value": "+ (denotes solubility at the given condition, as determined by UV absorbance being less than 0.1 AU at 340 nm and the sample being clear when manually inspected.)"}, {"measurement": "IC50", "setting": "[2]; [3]", "value": "< 250", "unit": "nM"}]}, {"smiles": "CC[C@H](C)[C@H](NC(C)=O)C(=O)N[C@H]1CSSC[C@@H](C(=O)N[C@H](C(=O)NCC(=O)N[C@@H](C)C(=O)N[C@@H](CCC(=O)O)C(=O)N[C@@H](CO)C(N)=O)[C@@H](C)O)NC(=O)[C@H](CCCNC(=N)N)NC(=O)[C@H](Cc2c[nH]cn2)NC(=O)[C@H](CCC(=O)O)NC(=O)CNC(=O)[C@H](Cc2c[nH]c3ccccc23)NC(=O)[C@H](CC(=O)O)NC(=O)[C@H](CCC(N)=O)NC(=O)[C@H](Cc2ccc3ccccc3c2)NC(=O)[C@H]([C@@H](C)CC)NC1=O", "note": "[Compound 52] (Ac-ICI[2Nal]QDWGEHRCTGAES-NH2; disulfide 2-12)", "values": [{"measurement": "Solubility, Condition 1 Acetate pH 4", "setting": "[1]", "value": "− (denotes lack of solubility at the given condition, as UV absorbance at 340 nm exceeds 0.1 AU and/or it is visibly turbid or contains particles.)"}, {"measurement": "Solubility, Condition 2 Acetate pH 5", "setting": "[1]", "value": "− (denotes lack of solubility at the given condition, as UV absorbance at 340 nm exceeds 0.1 AU and/or it is visibly turbid or contains particles.)"}, {"measurement": "Solubility, Condition 3 Phosphate pH 6", "setting": "[1]", "value": "+ (denotes solubility at the given condition, as determined by UV absorbance being less than 0.1 AU at 340 nm and the sample being clear when manually inspected.)"}, {"measurement": "Solubility, Condition 4 Phosphate pH 7", "setting": "[1]", "value": "+ (denotes solubility at the given condition, as determined by UV absorbance being less than 0.1 AU at 340 nm and the sample being clear when manually inspected.)"}, {"measurement": "Solubility, Condition 5 Phosphate pH 7.5", "setting": "[1]", "value": "+ (denotes solubility at the given condition, as determined by UV absorbance being less than 0.1 AU at 340 nm and the sample being clear when manually inspected.)"}, {"measurement": "IC50", "setting": "[2]; [3]", "value": "< 100", "unit": "nM"}]}]}
